# According to patent US20110104361A1, “TASTE-IMPROVING AGENT FOR POTASSIUM SALT OR POTASSIUM SALT-CONTAINING FOOD OR DRINK” (OGAWA & CO., LTD., priority 2008, published 2011):
# Experiments:
# [1] = Organoleptic evaluation, potassium chloride aqueous solution (Test Example 5); settings: 0.75 wt % KCl aqueous solution; addition quinic acid-containing composition 5.0 ppm, spilanthol 0.1 ppm, shallot extract 10.0 ppm; panel of 10 experts vs control without agent
# Protocol: The taste-improving agents obtained in Production Examples 1-5 were used to examine the taste-improving effects on potassium salts or potassium salt-containing foods or drinks. [table] To a 0.75 wt % potassium chloride aqueous solution there were added each of the agents for improving taste of Production Examples 1-5, so that the content of the quinic acid-containing compositions (Production Examples 1 and 2), spilanthol (Production Examples 3 and 4) or shallot extract (Production Example 5) in the potassium chloride aqueous solution was as listed in Table 2, and an organoleptic evaluation was conducted by a panel of 10 experts based on the rating scale shown in Table 1, with a product containing no agent for improving taste according to the invention, as the control.
# [2] = Organoleptic evaluation, cream stew (second Test Example 13); settings: addition quinic acid-containing composition 5.0 ppm, spilanthol 0.1 ppm, shallot extract 10.0 ppm, panel of 10 experts vs control
# Protocol: (§1) The taste-improving agents obtained in Production Examples 1-5 were used to examine the taste-improving effects on potassium salts or potassium salt-containing foods or drinks. [table] To reduced-sodium cream stew having the following formulation 7 there were added each of the agents for improving taste of Production Examples 1, 2, 4 and 5 so that the contents of the quinic acid-containing compositions (Production Examples 1 and 2), purified spilanthol (Production Example 4) and shallot extract (Production Example 5) in the stew were as listed in Table 11, and an organoleptic evaluation was conducted by a panel of 10 experts based on the rating scale shown in Table 1, with a product containing no agent for improving taste according to the invention, as the control. [table]
# [3] = Organoleptic evaluation, meat sauce (Test Example 14); settings: addition quinic acid-containing composition 5.0 ppm, spilanthol 0.1 ppm, shallot extract 10.0 ppm, panel of 10 experts vs control
# Protocol: as §1, with “meat sauce” for “cream stew”, “8” for “7”, “meat sauce” for “stew”, “12,” for “11,”
# [4] = Organoleptic evaluation, ramen soup (Test Example 11); settings: addition quinic acid-containing composition 5.0 ppm, spilanthol 0.1 ppm, shallot extract 10.0 ppm, panel of 10 experts vs control
# Protocol: The taste-improving agents obtained in Production Examples 1-5 were used to examine the taste-improving effects on potassium salts or potassium salt-containing foods or drinks. [table] To reduced-sodium ramen soup having the following formulation 4 there were added each of the agents for improving taste of Production Examples 2, 4 and 5 so that the contents of the quinic acid-containing composition (Production Example 2), purified spilanthol (Production Example 4) and shallot extract (Production Example 5) in the soup were as listed in Table 8, and an organoleptic evaluation was conducted by a panel of 10 experts based on the rating scale shown in Table 1, with a product containing no agent for improving taste according to the invention, as the control. [table] A 20 g portion of the powder above was dissolved in 500 g of hot water.
smiles,measurement,setting,value
"CC=CC=CCCC=CC(=O)NCC(C)C [Purified spilanthol (Prod. Ex. 4), N-isobutyl-2,6,8-decatrieneamide]",Metallic taste,[1],++ (Noticeable effect (at least 5/10 panelists noticed an effect compared to the control))
same,Milk flavor,[2],− (No effect/change (fewer than 3/10 panelists noticed an effect compared to the control))
same,Sweet taste,[2],− (No effect/change (fewer than 3/10 panelists noticed an effect compared to the control))
same,Unpleasant taste,[2],+ (Somewhat noticeable effect (at least 3/10 panelists noticed an effect compared to the control))
same,Meat flavor,[3],− (No effect/change (fewer than 3/10 panelists noticed an effect compared to the control))
same,Metallic taste,[3],+ (Somewhat noticeable effect (at least 3/10 panelists noticed an effect compared to the control))
same,Tomato flavor,[3],− (No effect/change (fewer than 3/10 panelists noticed an effect compared to the control))
same,Chicken flavor,[4],− (No effect/change (fewer than 3/10 panelists noticed an effect compared to the control))
same,Salty taste,[4],+ (Somewhat noticeable effect (at least 3/10 panelists noticed an effect compared to the control))
same,Unpleasant taste,[4],+ (Somewhat noticeable effect (at least 3/10 panelists noticed an effect compared to the control))
